We go through one compound from patent US8669232B2, “Flavonol compounds, a bioactive extract/fraction from Ulmus wallichiana and its compounds for prevention for treatment of osteo-health related disorders” (Council of Scientific & Industrial Research, priority 2008, dated 2014).

Assay [1] relates to BMCs (Bone Marrow Cells) from growing female rats. Description: Ex-vivo bone marrow cultures from treated immature rats (ALP, mineralization). The class given is in vivo, Sprague Dawley rats. The settings on record: BMCs from growing rats treated with 5.0 mg/kg body weight for 30 days; vs controls. The text has this:
Right femur of control and C002 treated rats were collected aseptically in PBS during autopsy from the rats. Soft tissue was removed, and the ends of the femur was clipped off using sterile scissors, a hole was created in the knee joint end of each bone with a needle, and the marrow was flushed out from the shaft with control medium (CM) which consisted of α-MEM supplemented with 10% fetal calf serum, 100 U/ml penicillin, 100 U/ml streptomycin (Sigma, Chemical Co., St. Louis, Mo., USA). The cells were suspended in this medium, and the suspensions were spun down at 800 rpm for 5 min. Cells were resuspended in fresh CM and counted using a haemocytometer. […] ALP activity was determined as described by Akiyama et al. with modifications. Briefly, cells were washed once with PBS, then, ALP activity was measured by adding ALP buffer (1 M diethanolamine, 0.5 mM MgCl2, 1 mg/ml PNPP, pH 9.0), incubating in 37° C., and absorbance (405 nm) was read using a microplate spectrophotometer. Statistical significance was determined by paired two-tailed Student's t-tests. […]
Right femur of control and K058 treated rats were collected aseptically in PBS during autopsy from the rats. […] Cells were resuspended in fresh CM and counted using a haemocytometer. […] ALP activity was determined as described by Akiyama et al. with modifications. […] Statistical significance was determined by paired two-tailed Student's t-tests.

The test system of another assay is calvarial osteoblasts. Description: Semi-quantitative RT-PCR of osteogenic genes. Format: cell-based, neonatal Sprague-Dawley rats. To be noted: 10^−7 M. As for the experimental part: Neonatal rat calvarial cell cultures are prepared as described previously (Chattopadhyay et al., Endocrinology 145:3451-62, 2004) using slight modification. Briefly, for calvarial osteoblast cultures, frontal and parietal bones from neonatal Sprague-Dawley rats (1-3 day old) were digested in 0.1% collagenase/0.1% dispase in α-MEM to obtain 5 sequential digests. The second through fifth digests are combined and grown to confluence at 37° C. and 5% CO2 in air in α-MEM, supplemented with 10% fetal bovine serum (FBS), 2 mM glutamine, 100 U/ml penicillin-streptomycin, non-essential amino acid solution and sodium pyruvate.
RT-PCR was performed for assessing mRNA levels of Col1 (collagen type I), Cbfa-1 (Core binding factor-1), ALP (Alkaline phosphatase), OPN (osteopontin), BMP 2 (Bone morphogenic protein 2), OPG (Osteoprotegrin), and OCN (Osteocalcin). The house-keeping gene GAPDH (Glyceraldehyde-3-phosphate dehydrogenase) was used as the internal control in this study. RNAs were extracted at 0-, 4-, 8-, 12-, 24-, and 48 h. Total RNA was extracted using TRIzol reagent (Invitrogen). A single step RT PCR kit (Qaigen) was used to perform RT-PCR according to the manufacturer's instructions. Following gene specific primer pairs were used (Table 2).

Turning to `O=C1c2c(cc(O)c([C@@H]3OC(CO)[C@@H](O)[C@H](O)C3O)c2O)O[C@@H](c2ccc(O)c(O)c2)[C@@H]1O` (stereo partly drawn) [K058, (2S,3S)-(+)-3′,4′,5,7-tetrahydroxydihydroflavonol-6-C-β-D-glucopyranoside], in assay [1], the “ALP activity of BMCs (osteoblast differentiation)” value was “significantly more” and the “mineralization of BMCs (alizarin red-S)” value was “significantly more”. The “mRNA levels of OPG (Osteoprotegrin)” value with calvarial osteoblasts is listed as “increased”. In the assay with calvarial osteoblasts (0 to 48 h), the “mRNA levels of Alkaline phosphatase (ALP)” value was “increased”, the “mRNA levels of bone morphogenic protein-2 (BMP-2)” value was “increased”, the “mRNA levels of collagen I (COL-1)” value is “increased” and the “mRNA levels of core binding factor-1 (Cbfa-1)” value was “increased”. In addition, the “mRNA levels of osteocalcin (OCN)” value in the assay on calvarial osteoblasts (0 to 48 h) is recorded as “increased”.
